{
  "source": "patent US7405081B2",
  "about": "“Methods and kits for identifying scavengers of reactive oxygen species (ROS)” (priority 2001, dated 2008)",
  "key": {"katA-gfp fusion": {"test_system": "katA-gfp fusion", "settings": "AG6 in MG/L, 30-120 μM H2O2, 2 hours", "description": "To determine if H2O2 can induce the katA expression, AG6 was grown in MG/L liquid medium overnight at 28° C. The cells were harvested and resuspended in fresh MG/L liquid medium to a final concentration of OD600=0.5. Aliquots (2 ml) of the cultures were transferred into sterile tubes, and H2O2 was added to the tubes to final concentrations of 30 μM, 60 μM and 120 μM. The cell suspensions were incubated at 28° C. for 2 hours. Then 1 ml of each cell suspension was centrifuged, washed and resuspended in the Laemmli (1970) sample buffer, and subjected to Western blot as described later.\nTo determine whether the expression of katA can be induced by H2O2, like some of other bacterial catalases (Loewen, 1997), AG6 was treated with low concentrations of H2O2 (30-120 μM) in liquid MG/L medium and the katA-gfp expression levels were then determined."}, "[1]": {"test_system": "katA-gfp fusion in AG6 cells", "experiment": "Extracellular catalase added to IB plates, GFP expression of AG6 cells", "format": "cell-based, Agrobacterium tumefaciens", "settings": "1 or 5 microgram per ml in IB plates", "method": "Catalase purchased from Sigma was added into IB plates at a final concentration of 1 or 5 microgram per ml. AG6 cells (carrying the katA-gfp fusion) were then grown on the IB plate. […] To ensure that the catalase in the IB medium was still active, hydrogen peroxide was dropped onto the catalase-containing plate. Air bubbles were instantly visible in the catalase-containing plate; no air bubble was found in the control catalase-free IB plate. […] Therefore, it can be concluded that extracellular catalase could not remove the intracellular hydrogen peroxide."}, "[2]": {"experiment": "Catalase activity assay in whole bacterial cells (Amplex Red Catalase Assay Kit)", "format": "cell-based, Agrobacterium tumefaciens", "settings": "whole cells grown on IB plates", "method": "Catalase activity assay: The catalase activity in whole bacterial cells was determined as previously described (Maciver and Hansen, 1996) except using the Amplex Red Catalase Assay Kit (Molecular Probes Inc., USA). Briefly, A. tumefaciens strains were grown at 28° C. for 24 hr on IB plates. The cells were harvested, washed and resuspended at OD600=1.0 in 50 mM phosphate-buffer (pH 7.4). For the strains with the wild type katA [A348, AG6 (pXQ9), and AG6 (pXQ23)], 100 μl cell suspension of each sample was incubated with 50 μl 40 μM H2O2 at time intervals of 0, 30 sec, 1 min and 2 min.\nFor the strains with the katA mutants [AG6, AG6 (pXQ11), AG6 (pXQ22), AG6 (pXQ26) and AG6 (pXQ27)], 100 μl cell suspension of each sample was incubated with 50 μl 5 μM H2O2 at time intervals of 0, 1, 2, and up to 6 min. The amount of H2O2 left after degradation by the bacterial catalase was then determined by adding 50 μl Amplex Red reagent N-acetyl-3, 7-dihydroxyphenoxazine at 25 μM and 0.4 U/ml horse radish peroxidase provided by the kit. The fluorometric assay was conducted by the same procedure as described above for the measurement of intracellular H2O2. The cell suspensions without the added H2O2 were used as the blank. Solutions of crystalline bovine catalase (Sigma) were used to standardize this assay.\nThe catalase activity in whole bacterial cells was determined as described above in Example 1 (“Catalase activity assay”)."}, "aopB-gfp": {"test_system": "aopB-gfp", "experiment": "aopB-gfp expression in strain CGI1 (specificity control)", "format": "cell-based, Agrobacterium tumefaciens", "settings": "pXQ9 introduced into CGI1, IB (pH 5.5)", "method": "To study the katA gene expression in different genetic backgrounds, A. tumefaciens strains A348, AG6, AG6 (pSW172), AG6 (pXQ9), A613, CGI1 and CGI1 (pXQ9) were grown at 28° C. for 24 hours on IB (pH 5.5) agar plates. The fluorescence of each strain was determined as described above.\nTo determine if katA could specifically repress katA-gfp, pXQ9 was introduced into a different mini-Tn5 transposon mutant strain CGI1, which contained the transposon insertion at a chromosomal gene aopB and could produce bright green fluorescence under UV light."}, "[3]": {"experiment": "Peroxidase activity staining of cell extracts", "format": "biochemical, Agrobacterium tumefaciens", "settings": "same cell extracts"}},
  "note": "Marks after values point to notes of the source that are not given here.",
  "data": [
    {"molecule": "OO", "note": "[H2O2, hydrogen peroxide]", "values": [
      {"measurement": "katA-gfp expression levels in presence of H2O2", "setting": "katA-gfp fusion", "value": "increased significantly"}
    ]},
    {"molecule": "Catalase", "values": [
      {"measurement": "Repression of katA-gfp expression by catalase added to the medium", "setting": "[1]", "value": "did not repress katA-gfp expression"}
    ]},
    {"molecule": "KatA: Agrobacterium tumefaciens catalase encoded by katA; putative protein of 723 amino acids, 78.7 kDa", "values": [
      {"measurement": "Catalase activity", "setting": "[2]; gene on plasmid in AG6, driven by katA and lac promoters (pXQ23, pXQ26, pXQ27)", "value": "77145.5 ± 440.3", "unit": "unit/10^8 cells"},
      {"measurement": "Catalase activity", "setting": "[2]; gene on plasmid in AG6, driven by katA promoter (pXQ9, pXQ11, pXQ22)", "value": "3997.3 ± 459.1", "unit": "unit/10^8 cells"},
      {"measurement": "Catalase activity", "setting": "[2]; strain AG6 (katA disrupted by mini-Tn5)", "value": "175.2 ± 20.2^c unit/10^8 cells"},
      {"measurement": "Catalase activity", "setting": "[2]; wild type strain A348", "value": "1486.2 ± 149.5", "unit": "unit/10^8 cells"},
      {"measurement": "Repression of aopB-gfp expression", "setting": "aopB-gfp", "value": "did not repress"},
      {"measurement": "Peroxidase activity associated with the catalase activity bands", "setting": "[3]", "value": "no peroxidase activity"}
    ]}
  ]
}
